# Measured values from patent US8394399B2, “Drug-enhanced adhesion prevention” (Ethicon, Inc., priority 2004, dated 2013).
# Values joined by “and” are separate entries in the source; they are usually repeats but may differ in a detail not shown here. Equal values may be shown once.
# What was measured:
# [1] = Necropsy observations in the sidewall adhesion study; assay type: in vivo, rabbit
# Procedure: (§1) The efficacy of Pemirolast in inhibiting adhesion formation was evaluated using a single pump, filled with one of three dosage levels of mg of Pemirolast per ml of delivery vehicle (0.625 mg/ml, 6.25 mg/ml or 62.5 mg/ml), or placebo control (saline). The drug was placed in an Alzet miniosmotic pump and delivered over 7 days at a rate of 10 microliter/hr. The animals were sacrificed after 21 days.
# However, there was inflammation observed at the abdominal cavity in 1 of 7 and 3 of 7 rabbits at the medium and high dose of drug, respectively.
# [2] = system: adhesion formation at the sidewall injury; assay: Rabbit peritoneal sidewall adhesion model, 1 week dosing via Alzet miniosmotic pump; assay type: in vivo; parameters: key to Adhesion Tenacity: 0: No adhesions; 1: mild, easily dissectible adhesions; 2: moderate adhesions; non-dissectible, does not tear organ; 3: dense adhesions; non-dissectible, tears when removed; conditions: for Adhesion Area Percentage / Adhesion Tenacity: 10 microliter/hr over 7 days, sacrifice after 21 days, individual animals 1-7; for Adhesion Tenacity: score 0-3; for mean adhesion score: group mean of 7 rabbits, placebo control 100±0
# Procedure: In the peritoneal sidewall model, rabbits were pre-anesthetized with 1.2 mg/kg acetylpromazine and anesthetized with a mixture of 55 mg/kg ketamine hydrochloride and 5 mg/kg xylazine intramuscularly. Following preparation for sterile surgery, a midline laparotomy was performed. A 3 cm×5 cm area of peritoneum and transversus abdominis muscle was removed on the right lateral abdominal wall. The cecum was exteriorized and digital pressure was exerted to create subserosal hemorrhages (trauma and loss of blood flow) over all cecal surfaces. The cecum was then returned to its normal anatomic position. Tranilast contained in a delivery vehicle as described below was placed in an Alzet® miniosmotic pump (Alza Corporation, Palo Alto, Calif.) to allow continuous release of the molecule through the postsurgical interval. The Alzet miniosmotic pump was placed in the subcutaneous space and a delivery tube connected the pump with the site of injury at the sidewall. Only the delivery vehicle was placed in the pump of control rabbits. The abdominal wall and skin were closed in a standardized manner.
# After 21 days, the rabbits were sacrificed and the percentage of the area of the sidewall injury that was involved in adhesions was determined. In addition, the tenacity of the adhesion formed was scored using a system as follows:
# With the sidewall model, an initial score to represent the overall extent of adhesions is given (0 to 3).
# The percentage of a surface of the sidewall involved in adhesions to various organs are given in the tables below to quantify the overall adhesion score. A reduction in the area and the tenacity of the adhesions would be considered beneficial and efficacious.
# as §1
smiles,measurement,setting,value
"Cc1cccn2c(=O)c(-c3nnn[nH]3)cnc12 [Pemirolast, 9-methyl-3-(1H-tetrazol-5-yl)-4H-pyrido [1,2-α]pyrimidin-4-one potassium]",clinical signs associated with administration,"[1]; at necropsy, all doses",no clinical signs
same,inflammation observed at the abdominal cavity (rabbits affected),[1]; high dose (62.5 mg/ml),3 of 7
same,inflammation observed at the abdominal cavity (rabbits affected),[1]; medium dose (6.25 mg/ml),1 of 7
same,Adhesion Area Percentage,[2]; 0.625 mg/ml in pump,80% (2×) and 100% (4×) and 70%
same,Adhesion Tenacity,[2]; 0.625 mg/ml in pump,1 (5×) and 2 (2×)
same,mean adhesion score,[2]; 0.625 mg/ml,90.0±4.9
same,Adhesion Area Percentage,[2]; 6.25 mg/ml in pump,50% and 80% (2×) and 100% (2×) and 70% and 60%
same,Adhesion Tenacity,[2]; 6.25 mg/ml in pump,1 (6×) and 2
same,mean adhesion score,"[2]; 6.25 mg/ml, p=0.007",77.1±7.1
same,Adhesion Area Percentage,[2]; 62.5 mg/ml in pump,70% (2×) and 50% (2×) and 80% (2×) and 100%
same,Adhesion Tenacity,[2]; 62.5 mg/ml in pump,2 (3×) and 1 (4×)
same,mean adhesion score,"[2]; 62.5 mg/ml, p=0.001",71.4±6.7
same,"tenacity of the adhesions formed, relative to control","[2]; all dose groups, analysis of variance on the ranks",significant reductions
same,"area of adhesion formation, relative to control","[2]; sidewall model, reductions in the groups that received the higher doses",reduced the area of adhesion formation
